As usually defined, the inhibition is the relative decrease from the control value, in per cent.

This passage reports inhibition results from patent US8889876B2, “Histone deacetylase inhibitors and uses thereof” (Jiangsu Hengyi Pharmaceutical Co., Ltd., priority 2008, dated 2014).

Holding throughout (assay type): cell-based
Assay [1] concerns Hut78 T-cell Leukemia cell. The assay can be described thus: CCK-8 proliferation inhibition, Hut78. The following applies: Homo sapiens, read-out: Hut-78 (inhibition %); for inhibition at 10 µM: HuT78, 10 μM; for inhibition at 100 µM: HuT78, 100 μM. The method, then:
(§1) Detecting the inhibition rate of the compound concentrations of 100 μM and 10 μM to Hut78 T-cell Leukemia cell, Jurkat E6-1 human T-cell lymphoma, PANC-1 human pancreatic cancer cells, A549 human lung cancer cells, K562 human chronic myeloid leukemia cells, Hep3B2.1-7 human liver cancer cells, MDA-MB-435s human breast cancer cells, Colo320 human rectal cancer cells and PC-3 human prostate cancer using CCK-8 method.

Assay [2] relates to PANC-1 human pancreatic cancer cells. In words: CCK-8 proliferation inhibition, PANC-1. To be noted: Homo sapiens; for inhibition at 10 µM: PANC-1, 10 μM; for inhibition at 100 µM: PANC-1, 100 μM. As for the experimental part:
as §1

Assay [3] has as its system Jurkat E6-1 human T-cell lymphoma. The assay can be described thus: CCK-8 proliferation inhibition, Jurkat E6-1. The following applies: Homo sapiens; for inhibition at 10 µM: Jurkat E6.1, 10 μM; for inhibition at 100 µM: Jurkat E6.1, 100 μM. As for the experimental part:
as §1

Assay [4] deals with K562 human chronic myeloid leukemia cells. The assay can be described thus: CCK-8 proliferation inhibition, K562. The following applies: Homo sapiens; for inhibition at 10 µM: K562, 10 μM; for inhibition at 100 µM: K562, 100 μM. The method, then:
as §1

For assay [5], the system named is A549 human lung cancer cells. The assay can be described thus: CCK-8 proliferation inhibition, A549. To be noted: Homo sapiens, A549, CCK-8 method; for inhibition at 10 µM: compound concentration 10 μM; for inhibition at 100 µM: compound concentration 100 μM. As for the experimental part: as §1
Background: Formazan colour is commonly taken as a measure of viable cells.

The subject of assay [6] is MDA-MB-435s human breast cancer cells. In words: CCK-8 proliferation inhibition, MDA-MB-435s. To be noted: Homo sapiens, MDA-MB-435S, CCK-8 method; for inhibition at 10 µM: compound concentration 10 μM; for inhibition at 100 µM: compound concentration 100 μM. As for the experimental part: as §1
Assay [7] deals with Hep3B2.1-7 human liver cancer cells. In words: CCK-8 proliferation inhibition, Hep3B2.1-7. To be noted: Homo sapiens, Hep3B, CCK-8 method; for inhibition at 10 µM: compound concentration 10 μM; for inhibition at 100 µM: compound concentration 100 μM. The method, then:
as §1

For assay [8], the system named is PC-3 human prostate cancer. In words: CCK-8 proliferation inhibition, PC-3. The following applies: Homo sapiens, CCK-8 method; for inhibition at 10 µM: compound concentration 10 μM; for inhibition at 100 µM: compound concentration 100 μM. The method, then: as §1
Assay [9] relates to Colo320 human rectal cancer cells. In words: CCK-8 proliferation inhibition, Colo320. To be noted: Homo sapiens, COLO 320, CCK-8 method; for inhibition at 10 µM: compound concentration 10 μM; for inhibition at 100 µM: compound concentration 100 μM. As for the experimental part:
as §1

For `Cc1ccc(COC(=O)NCc2ccc(C(=O)Nc3ccncc3N)cc2)cc1` [V-10], the inhibition at 10 µM in [1] was 15.5%; in assay [2], 16.9%; in assay [3], 27.2%; in [4] it was 53.6%; in assay [5], -16.9%; in assay [6], 8%. For the same compound, the inhibition at 10 µM in assay [7] is -7%; in [8], 23.7%; in assay [9] it was -5.5%. In addition, the inhibition at 100 µM worked out at 66.6% in assay [1]; 19.7% in assay [2]; 93.3% in assay [3]; 87.2% in assay [4]; 45.7% in assay [5]; 79.1% in assay [6]. Further, the results for the inhibition at 100 µM in [7], in assay [8] and in assay [9] were 57.5%, 56% and 59.2%, respectively.
As for `COc1ccc(COC(=O)NCc2ccc(C(=O)Nc3ccncc3N)cc2)cc1` [V-12], the inhibition at 10 µM is 17.5% in [1]; -1.8% in assay [2]; 36.4% in assay [3]; 56.9% in [4]; -5.9% in assay [5]; 14.2% in assay [6]. Further, the inhibition at 10 µM in assay [7] is 5%; in assay [8] it was 29.7%; in assay [9], -1.8%. Moreover, the inhibition at 100 µM came out at 83.6% in [1]; 34.9% in assay [2]; 96.3% in [3]; 94.5% in assay [4]; 38% in [5]; 94.5% in assay [6]. In addition, the inhibition at 100 µM in assay [7] stood at 90.4%; in [8] it was 89.3%; in assay [9], 86.4%.
As to `Nc1ncccc1NC(=O)c1ccc(CNC(=O)OCc2ccc([N+](=O)[O-])cc2)cc1` [V-15, N-(2-amino-3-pyridyl)-4-[(4-nitrobenzyloxyacyl)aminomethyl]benzamide], the inhibition at 10 µM in [1] amounted to 28.5%; in [2], 24%; in assay [3], 18.6%; in [4], 20.4%; in [5], 15.3%; in assay [6], 30.6%. For the same compound, the inhibition at 10 µM amounted to 22.3% in assay [7], 21.9% in [8] and 2.6% in [9]. Besides, the inhibition at 100 µM in assay [1] amounted to 24.6%; in [2], 21.1%; in assay [3] it was 26.3%; in assay [4], 32.3%; in [5], 12.9%; in assay [6], 42.4%. The inhibition at 100 µM came out at 43% in [7], 18.8% in assay [8] and 4.1% in [9].
On to `Nc1ncccc1NC(=O)c1ccc(CNC(=O)OCc2ccc(F)cc2)cc1` [V-19, N-(2-amino-3-pyridyl)-4-[(4-fluorobenzyloxyacyl)aminomethyl]benzamide], for which the inhibition at 10 µM is 19.8% in assay [1]; 26% in [2]; 19.1% in assay [3]; 25% in [4]; 18.3% in [5]; 27.5% in assay [6]. For the same compound, the inhibition at 10 µM is 21.5% in assay [7], -1.9% in assay [8] and 0.9% in assay [9]. Besides, the inhibition at 100 µM was determined as 54% in [1]; 36.8% in assay [2]; 77.8% in assay [3]; 65.1% in assay [4]; 57.1% in assay [5]; 89.1% in assay [6]. Besides, the inhibition at 100 µM in assay [7] worked out at 69.8%; in assay [8], 48.5%; in assay [9], 34.3%.
For `Nc1cnccc1NC(=O)c1ccc(CNC(=O)OCc2ccc(F)cc2)cc1` [V-20], the inhibition at 10 µM in [1] was 22%; in assay [2], -2.8%; in assay [3] it was 23.8%; in assay [4], 34%; in assay [5], -17.6%; in assay [6], 19.5%. For the same compound, the inhibition at 10 µM was 7.2% in [7], 22.9% in assay [8] and -14.3% in assay [9]. The inhibition at 100 µM came to 91.1% in assay [1]; 15.7% in [2]; 96.5% in assay [3]; 88.7% in [4]; 72.2% in assay [5]; 63.9% in assay [6]. The figures for the inhibition at 100 µM in [7], in assay [8] and in [9] were 79.3%, 84.4% and 82.7%, respectively.
On to `Nc1ncccc1NC(=O)c1ccc(CNC(=O)/C=C/c2ccccc2)cc1` [V-25, N-(2-amino-3-pyridyl)-4-(cinnamoylaminomethyl)benzamide], for which the inhibition at 10 µM in [1] turned out to be 23.4%; in assay [2], 12%; in [3] it was 20.3%; in assay [4], 33.6%; in assay [5] it was 29.8%; in assay [6] it was 32.5%. For the same compound, the inhibition at 10 µM came out at 18.4% in assay [7], 41.8% in assay [8] and 4.9% in [9]. Moreover, the inhibition at 100 µM is 53.5% in [1]; 25.1% in [2]; 80.2% in assay [3]; 72.4% in [4]; 67.9% in [5]; 73.3% in assay [6]. For the same compound, the inhibition at 100 µM in assay [7] was 45.7%; in assay [8], 67.1%; in assay [9] it was 28.9%.
Take `Cc1ccc(/C=C/C(=O)NCc2ccc(C(=O)Nc3cccnc3N)cc2)cc1` [V-27, N-(2-amino-3-pyridyl)-4-[(4-methylcinnamoyl)aminomethyl]benzamide]: the inhibition at 10 µM stood at 43% in assay [1]; 20.2% in [2]; 58.3% in assay [3]; 54.3% in [4]; 6.3% in [5]; 33% in assay [6]. Also, the figures for the inhibition at 10 µM in [7], in assay [8] and in assay [9] were 25.4%, 50.2% and 12.9%, respectively. The inhibition at 100 µM in assay [1] stood at 77%; in assay [2], 26.2%; in assay [3], 80.9%; in [4], 85.8%; in assay [5], 37.3%; in assay [6], 77%. The inhibition at 100 µM in assay [7] was found to be 49.9%; in assay [8] it was 61%; in [9], 40.1%.
As to `COc1ccc(/C=C/C(=O)NCc2ccc(C(=O)Nc3cccnc3N)cc2)cc1` [V-29, N-(2-amino-3-pyridyl)-4-[(4-methoxycinnamoyl)aminomethyl]benzamide], the inhibition at 10 µM in assay [1] stood at 45.2%; in [2], 12.5%; in assay [3] it was 49.3%; in [4], 52.2%; in assay [5], 0%; in [6], 17%. Also, the inhibition at 10 µM in assay [7] turned out to be 11%; in [8], 40.1%; in assay [9], 9.5%. Further, the inhibition at 100 µM was determined as 75.6% in assay [1]; 33.3% in assay [2]; 89.7% in assay [3]; 85.2% in assay [4]; 41.3% in assay [5]; 57.8% in [6]. In addition, the inhibition at 100 µM in assay [7] was determined as 68.1%; in [8], 64.2%; in assay [9], 45.9%.
For `Nc1ncccc1NC(=O)c1ccc(CNC(=O)/C=C/c2ccc(F)cc2)cc1` [V-40, N-(2-amino-3-pyridyl)-4-[(4-fluorocinnamoyl)aminomethyl]benzamide], the inhibition at 10 µM stood at 29.2% in assay [1]; 4.4% in assay [2]; 31.6% in [3]; 45% in assay [4]; 2.8% in [5]; 28.5% in [6]. In addition, the inhibition at 10 µM in [7] is -5%; in [8] it was 6.3%; in assay [9] it was 10%. The inhibition at 100 µM in assay [1] stood at 69.3%; in assay [2], 9.5%; in assay [3], 87.6%; in assay [4], 75%; in [5], 47.7%; in assay [6], 76.3%. The inhibition at 100 µM is 51.7% in [7], 38.8% in [8] and 32.3% in assay [9].
